Among the test systems are TK-10 renal; OVCAR-3 ovarian; EKVX NSCLC; SN12C renal; MALME-3M melanoma; OVCAR-5 ovarian; NCI/ADR-RES ovarian; HT29 colon; NCI-H23 lung; BT-549 breast; SK-MEL-28 melanoma; SNB-19 CNS; T-47D breast; PC-3 prostate; OVCAR-4 ovarian; MDA-MB-435; HCC-2998 colon; SF-295 CNS; RXF 393 renal.
What all share (assay): NCI-60 cell line screen, 48 h

TGI data for seven molecules are collected here from PubChem BioAssay (NCI).

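These data come from cells grown in 96-well plates and exposed to compound for 48 hours at five concentrations. At the TGI there is no net growth.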

In the case of `COc1cc(C2SC(N)=Nc3c2c(C)nn3C(=O)c2ccc(Cl)cc2)ccc1O` (stereo not drawn), the TGI in the assay on TK-10 renal, in the assay with OVCAR-3 ovarian, in the assay on EKVX NSCLC, in the assay with SN12C renal, in the assay with MALME-3M melanoma and with OVCAR-5 ovarian was > 10 µM in each case. Besides, the TGI in the assay with NCI/ADR-RES ovarian, in the assay with HT29 colon, in the assay on NCI-H23 lung, in the assay on BT-549 breast, with SK-MEL-28 melanoma and in the assay with SNB-19 CNS was > 10 µM in each case. Further, the TGI in the assay on T-47D breast, in the assay with PC-3 prostate, in the assay with OVCAR-4 ovarian, with MDA-MB-435, in the assay with HCC-2998 colon and in the assay with SF-295 CNS was > 10 µM throughout. In addition, the TGI in the assay on RXF 393 renal is > 10 µM.
Take `O=C(O)CCCN=C(C(=NCCCC(=O)O)c1ccccc1)c1ccccc1`: the TGI with TK-10 renal, with OVCAR-3 ovarian, in the assay on EKVX NSCLC, in the assay with SN12C renal, in the assay with OVCAR-5 ovarian and in the assay on NCI/ADR-RES ovarian was > 100 µM in each case. The TGI in the assay on NCI-H23 lung, in the assay with BT-549 breast, with SK-MEL-28 melanoma, in the assay on SNB-19 CNS, in the assay on T-47D breast and in the assay on PC-3 prostate was > 100 µM in each case. Besides, the TGI in the assay with OVCAR-4 ovarian, in the assay on MDA-MB-435, with HCC-2998 colon, in the assay with SF-295 CNS and with RXF 393 renal was > 100 µM throughout.
Consider `COc1cc2c3c4c1OCc1c5c(cc(c1-4)CC3[N+](C)(C)CC2)OCO5` (stereo not drawn), for which the TGI in the assay on TK-10 renal was > 100 µM; with OVCAR-3 ovarian it was > 100 µM; in the assay on EKVX NSCLC it was > 100 µM; with SN12C renal, 39.4 µM; in the assay with MALME-3M melanoma, > 100 µM; in the assay on OVCAR-5 ovarian it was > 100 µM. Besides, the TGI in the assay on NCI/ADR-RES ovarian is > 100 µM; in the assay with HT29 colon, > 100 µM; with NCI-H23 lung, > 100 µM; in the assay with BT-549 breast it was 12.3 µM; in the assay on SK-MEL-28 melanoma, > 100 µM; in the assay on SNB-19 CNS it was 54 µM. Moreover, the TGI with T-47D breast is > 100 µM; in the assay on PC-3 prostate, > 100 µM; in the assay on OVCAR-4 ovarian, > 100 µM; in the assay with MDA-MB-435, > 100 µM; in the assay with HCC-2998 colon, > 100 µM; in the assay on SF-295 CNS, > 43 µM. Also, the TGI in the assay with RXF 393 renal was > 100 µM.
`COc1ccc(NC(C)=O)cc1N1C(=O)/C(=C\c2cccc(Oc3ccccc3)c2)SC1c1ccccc1` (stereo not drawn): the TGI with TK-10 renal was > 100 µM; in the assay on OVCAR-3 ovarian it was 71.3 µM; with EKVX NSCLC, > 100 µM; in the assay with SN12C renal it was 64.6 µM; in the assay with MALME-3M melanoma, > 100 µM; in the assay on OVCAR-5 ovarian, > 100 µM. The TGI was 54.8 µM with NCI/ADR-RES ovarian; 45.5 µM with HT29 colon; > 100 µM in the assay on NCI-H23 lung; > 100 µM in the assay with BT-549 breast; > 100 µM in the assay with SK-MEL-28 melanoma; > 100 µM with SNB-19 CNS. In addition, the TGI in the assay with T-47D breast, in the assay on PC-3 prostate, with OVCAR-4 ovarian, with MDA-MB-435, in the assay with HCC-2998 colon and in the assay with SF-295 CNS was > 100 µM in each case. Moreover, the TGI in the assay with RXF 393 renal was > 100 µM.
As to `Fc1ccc(C(OCCN2CCC3CCC(C2)N3C/C=C/c2cccnc2)c2ccc(F)cc2)cc1` (stereo not drawn), the TGI in the assay on TK-10 renal is 24 µM; in the assay with OVCAR-3 ovarian, 29.5 µM; in the assay on EKVX NSCLC, 25 µM; in the assay with SN12C renal, 26.2 µM; in the assay on MALME-3M melanoma it was 15 µM; in the assay with OVCAR-5 ovarian, 26.8 µM. Also, the TGI with NCI/ADR-RES ovarian is 25.7 µM; in the assay on HT29 colon, 14.6 µM; in the assay with NCI-H23 lung, 26.5 µM; with BT-549 breast, 26.4 µM; in the assay with SK-MEL-28 melanoma, 5.38 µM; in the assay on SNB-19 CNS it was 29.6 µM. Also, the TGI came out at 31 µM with T-47D breast; 21.8 µM with PC-3 prostate; 30.2 µM in the assay on OVCAR-4 ovarian; 24.3 µM in the assay on MDA-MB-435; 15.6 µM in the assay on HCC-2998 colon; 22.2 µM in the assay with SF-295 CNS. The molecule further had a TGI in the assay on RXF 393 renal of 19.4 µM.
Take `CCOC(=O)/C=C1\C[C@H](NC(=O)OCc2ccccc2)C(=O)N1CC(=O)OCC`: the TGI with TK-10 renal, in the assay with OVCAR-3 ovarian, in the assay on EKVX NSCLC, with SN12C renal, with MALME-3M melanoma and in the assay with OVCAR-5 ovarian was > 100 µM each time. Moreover, the TGI with NCI/ADR-RES ovarian, in the assay on HT29 colon, in the assay with NCI-H23 lung, in the assay with BT-549 breast, in the assay on SK-MEL-28 melanoma and in the assay on SNB-19 CNS was > 100 µM throughout. For the same molecule, the TGI in the assay on T-47D breast, with PC-3 prostate, with OVCAR-4 ovarian, in the assay with MDA-MB-435, in the assay with HCC-2998 colon and with SF-295 CNS was > 100 µM throughout. For the same molecule, in the assay on RXF 393 renal, the TGI is > 100 µM.
Take `CC(C)(C)c1cc2c(O)c(c1)COCc1cc(C(C)(C)C)cc(c1O)COCc1cc(C(C)(C)C)cc(c1O)COC2`: the TGI in the assay with TK-10 renal, in the assay with OVCAR-3 ovarian, with EKVX NSCLC, in the assay on OVCAR-5 ovarian, in the assay on NCI/ADR-RES ovarian and in the assay with NCI-H23 lung was > 100 µM in each case. In addition, the TGI with BT-549 breast, in the assay with SK-MEL-28 melanoma, with SNB-19 CNS, in the assay with T-47D breast, with PC-3 prostate and in the assay on OVCAR-4 ovarian was > 100 µM in each case. Besides, the TGI in the assay on MDA-MB-435, with HCC-2998 colon, in the assay on SF-295 CNS and in the assay on RXF 393 renal was > 100 µM in each case.
